Results reported in patent US20090239827A1, “COMPOUNDS HAVING LIPID LOWERING PROPERTIES” (priority 2005, published 2009).
Several values for one entry are separate records, joined by “and”; a condition that tells them apart may be missing. Equal values may be shown once.

What was measured:
[1] = tested on: APOE deficient mice; assay: Example 2: plasma lipid levels in APOE deficient mice, compound in feed, induction and challenge phases; assay type: in vivo, mouse
Method: (§1) This example evaluated the effects of a tocopheryl phosphate mixture (TPm) (mono-tocopheryl phosphate and di-tocopheryl phosphate) on the development of atherosclerotic lesions in male APOE deficient mice.
(§2) Twenty-eight mice were divided into 4 groups: 2 control groups, a tocopherol acetate (TA) group (150 mg TA/kg feed) and a TPm group (200 mg TPm/kg feed containing 7% fat).
‘Induction phase’—The induction phase consisted of the first 16 weeks of the treatment period.
‘Challenge phase’—This phase consisted of the final 8 weeks of the treatment period.
The 4 groups of animals were placed on the diet regimes outlined in the table below:
Of the two control animal groups only one was placed on the SF04-055, HFHC diet, while the other control group was maintained on the SF05-040 mouse pellet diet (only 7% fat) for the entire treatment period 24 week treatment period (C24). […] TA treated mice were fed pellets with 150 mg TA/kg feed and TPm treated mice were fed the pellets with 200 mg TPm/kg feed. […] The 26 mg/kg TPm dose was calculated to be the tocopherol equivalent to the TA dose.

[2] = tested on: APOE deficient mice; assay: Example 2: aortic atheromatous lesion area by Oil red O staining in APOE deficient mice; assay type: in vivo, mouse; details: end of the 24 week treatment period
Method: as §1, §2
‘Induction phase’—The induction phase consisted of the first 16 weeks of the treatment period. During this period the animals were fed a mouse pellet diet low in vitamin E (containing less than 20 mg vitamin E per kg food, with a 7% total fat; modified version of the standard AIN93G rodent diet (SF05-040, Specialty feeds, Glen Forrest, Wash. Australia). Control animals were fed the diet alone, while TA-feed contained 150 mg TA/kg feed and TPm-feed contained 200 mg TPm/kg feed. These feeds delivered on average doses of 21 and 26 mg/kg body weight, respectively. The 26 mg/kg TPm dose was calculated to be the tocopherol equivalence of the TA dose. […]
Of the two control animal groups only one was placed on the SF04-055, HFHC diet, while the other control group was maintained on the SF05-040 mouse pellet diet (only 7% fat) for the entire treatment period 24 week treatment period (C24). […] The 26 mg/kg TPm dose was calculated to be the tocopherol equivalent to the TA dose. […]

[3] = Challenge phase (HFHC diet), week 24, TA 150 mg/kg feed, TPm 200 mg/kg feed
[4] = Induction phase, week 16, TA 150 mg/kg feed, TPm 200 mg/kg feed

For `CC(=O)Oc1c(C)c(C)c2c(c1C)CCC(C)(CCC[C@H](C)CCC[C@H](C)CCCC(C)C)O2` (stereo partly drawn) [TA, Tocopherol Acetate], the “LDL-C level (mean ± SD)” value ([1]; Baseline, week 0) was 8.85 ± 1.66 mmol/L, the “total cholesterol level (mean ± SD)” value ([1]; Baseline, week 0) was 12.75 ± 1.41 mmol/L and the “triglyceride level (mean ± SD)” value ([1]; Baseline, week 0) was 1.75 ± 0.25 mmol/L. The “LDL-C level (mean ± SD)” value [1, 3] was 18.98 ± 2.29 mmol/L, the “total cholesterol level (mean ± SD)” value [1, 3] was 47.13 ± 4.44 mmol/L and the “triglyceride level (mean ± SD)” value [1, 3] was 2.23 ± 0.29 mmol/L. For the same compound, the “LDL-C level (mean ± SD)” value [1, 4] was 6.51 ± 0.71 mmol/L, the “total cholesterol level (mean ± SD)” value [1, 4] was 14.47 ± 1.32 mmol/L and the “triglyceride level (mean ± SD)” value [1, 4] was 1.30 ± 0.22 mmol/L. For the same compound, the “reduction in plasma lipid levels” value ([1]; after the challenge phase (week 24)) was “no significant reduction”, the “reduction in aortic lesion area / lesion formation compared to control mice on the same diet regime” value [2] was 12% and the “Atheromatous lesion area, % Lesion coverage (mean ± SD)” value ([2]; HFHC diet final 8 weeks) was 9.4% and 9.4 ± 1.1%.
